Data: article PMC8838189, “Thiazolidinedione Derivatives: In Silico, In Vitro, In Vivo, Antioxidant and Anti-Diabetic Evaluation” (Molecules, 2022)

Experiments:
[1] = system: alloxan-induced diabetic rat model; experiment: Oral anti-hyperglycemic activity, blood glucose level in alloxan-induced diabetic rat model; assay type: in vivo, Albino male Wistar rats
Experimental: Albino male Wistar rats (150 ± 20 g) were obtained. (Supplementary Materials).
The animals were kept fasting overnight (12 h) before induction of diabetes. Diabetes was induced in rats as reported and (Supplementary Materials).
Blood samples were obtained from the tail vein of all rats, the blood glucose levels (BGLs) were measured and monitored in all treatment groups at days 0 (basal), 2, 4, 15 and 30 as reported.
Oral anti-hyperglycemic activity was evaluated for compounds 4–7 by an alloxan-induced diabetic rat model. […] The BGL was monitored for each tested compound at three different doses (50,100 and 250 mg/Kg) and for five experimental period durations (0, 2, 4, 15, 30 days). […]
The animals were kept fasting overnight (12 h) before induction of diabetes. […]

[2] = system: alloxan-induced diabetic rat model; experiment: Serum lipid profile (CH, TG, HDL, LDL, VLDL) in alloxan-induced diabetic rats; assay type: in vivo, Albino male Wistar rats; conditions: 50 mg/Kg; for Serum CH (cholesterol) level: all experimental times
Experimental: The blood samples (0.5 mL) were withdrawn from each rat using the retro-orbital plexus and the other steps for biochemical analysis were adapted. (Supplementary Materials).
The serious side effect related to diabetes is hyperlipidemia. The insulin deficiency promotes adipocytes to generate fatty acid, hepatic phospholipids and cholesterol. Thus, the levels of cholesterol (CH), triglyceride (TG), high (HDL), low (LDL) and very low (VLDL) density lipoproteins, in serum for alloxan-loaded diabetes have been measured at 50 mg/Kg concentration (Figure 7). All lipid parameters for all tested compounds have (p < 0.05) compared to the diabetic control group (Figure 7).
Figure 7 The level of (A) CH (Cholesterol); (B) TG (Triglyceride); (C) HDL (High density lipoprotein); (D) LDL (Low density lipoprotein) and (E) VLDL (Very low density lipoprotein) in serum of hyperglycemic loaded rats. […] Data analyzed by one way ANOVA followed by LSD test and expressed as mean ± SEM from five observations. […]
glucose level of rats was determined using glucose strips. Rats with plasma glucose concentration N 300 mg/dl (Gadadare et al., 2015) were considered diabetic and included […]
The blood samples (0.5 ml) were withdrawn from the retro-orbital plexus of each rat under mild anesthesia using a glass capillary tube after fasting for 6 h. Blood samples were centrifuged at 3000 rpm for 15 min. The serum was kept at −80 °C until analyzed. Speciﬁc reagent kits were used to determine levels of serum triglyceride (TG), serum cholesterol (CH), serum low density lipoproteins (LDL), serum high density lipoproteins (HDL) for assessing the lipid proﬁle.
Data are expressed as mean ± S.E. Data analysis was done using one way analysis of variance (ANOVA) followed by least significant difference (LSD) test for multiple comparisons. Difference was considered significant when p is less than 0.05. SPSS (version 11) program was used to carry out

α-amylase enzyme = experiment: In vitro inhibition of α-amylase assay; assay type: biochemical; conditions: six concentrations 5-40 µg/mL, non-linear regression; read-out: IC50 against α-amylase enzyme (converted)
Experimental: - inhibition in-vitro of α-Amylase assay:
The α-amylase activity of the compounds were determined using a method in which 250 μL of each compound, or Metformin .HCl, dissolved in ethanol to obtain different concentrations (5, 10, 15, 20,30 and 40 μg/mL ), was mixed with 500 μL of α-amylase (2 U/mL ) in phosphate buffer (100 mM, pH 6.8) and incubated at 37 °C for 10 min. Thereafter, 50 μL
(1 picture or pasted object on this page, not shown here) […]
of 1% starch, dissolved in the same buffer, was added to the mixture and the samples were incubated again at 37 °C. After 30 min, dinitrosalicylic acid (DNS) colour reagent (1 mL) was added. The (DNS) was prepared by adding 437mg of 3,5- dinitro salicylic acid in 20 mL distilled water to12 g of sodium potassium tartrate in 8 mL of 2 M NaOH, then added distilled water until the solution reach to 40 mL ). the samples were boiled for 10 min in water bath. For non-enzymatic reactions, the assays were performed with a blank containing all of the components except the enzyme.

[3] = Radical scavenging by DPPH method; conditions: DPPH assay
Experimental: The assay of 2,2-Diphenyl-1-picrylhydrazyl radical (DPPH) was performed according to the method at.
The antioxidant activity was examined for the hybrids (4–7) using the stable DPPH assay. The antioxidant results from different concentrations (0.16, 0.8, 4, 20, 40, 200 and 1000 µg/mL) were represented in Figure 5 as IC50 value (concentration of compound is essential for rising 50% of reducing power for H-donating or radical scavenging). The effect of the scavenging is rising in the trend 4 > 5 > 6 > STD > 7. […] After blocking the hydrazide group by aldehyde motifs in compounds 6 and 7, the activity was decreased. High scavenging activity may be due to the stabilization of the lone pair in the conjugated system by the presence of terminal ester or hydrazide.

Sequence of α-amylase enzyme (P04746 16-511): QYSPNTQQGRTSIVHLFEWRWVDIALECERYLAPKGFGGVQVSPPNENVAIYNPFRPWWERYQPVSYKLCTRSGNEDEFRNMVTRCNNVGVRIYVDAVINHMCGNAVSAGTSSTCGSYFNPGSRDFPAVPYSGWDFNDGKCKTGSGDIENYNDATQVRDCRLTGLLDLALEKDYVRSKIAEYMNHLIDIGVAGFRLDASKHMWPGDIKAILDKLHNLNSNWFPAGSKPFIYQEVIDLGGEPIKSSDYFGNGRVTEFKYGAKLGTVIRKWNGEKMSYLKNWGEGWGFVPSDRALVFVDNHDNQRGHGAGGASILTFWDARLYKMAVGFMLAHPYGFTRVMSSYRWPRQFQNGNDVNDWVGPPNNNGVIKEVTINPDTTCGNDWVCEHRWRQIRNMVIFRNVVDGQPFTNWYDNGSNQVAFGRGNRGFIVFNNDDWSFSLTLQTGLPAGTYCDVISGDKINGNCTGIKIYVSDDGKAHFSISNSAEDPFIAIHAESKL

## 5-(Benzo[d][1,3]dioxol-5-ylmethylene)-3-(2-(2,4-dioxo thiazolidin-3-yl) acetyl) thiazolidine-2,4-dione [Compound 6]
[1]; 50 mg/Kg, 2nd and 4th days
  Blood glucose level (BGL) compared to DC: suffered from controlling the BGL
[1]; 100 mg/Kg, all of the experiments
  Blood glucose level (BGL) compared to DC: increased the BGL rather than DC
[2]; 2nd and 4th days
  Serum CH (cholesterol) level reduction: moderate reduction
[2]; 15th and 30th days
  Serum CH (cholesterol) level reduction: best reduction of the CH level
  Serum VLDL level: lower than normal value

## CCOC(=O)CN1C(=O)SC(=Cc2ccc3c(c2)OCO3)C1=O [Compound 4, Ethyl-2-(5-(benzo[d][1,3]dioxol-5-ylmethylene)-2,4-dioxothiazolidin-3-yl)acetate]
[1]; 50 mg/Kg, 2nd, 4th and 15th days
  Blood glucose level (BGL) compared to DC: suffered from controlling the BGL
[1]; 100 mg/Kg, 15th and 30th days
  Blood glucose level (BGL) compared to DC: significance decrease in the BGL
[1]; 250 mg/Kg, all durations of the experiment
  Blood glucose level (BGL) compared to DC: failed to control BGL
[2]; 0th and 15th days
  Serum VLDL level, regulation to nearly normal value: failed to do so
[2]; 2nd day
  Serum TG (triglyceride) level compared to DC: failed to regulate the TG level lower than the DC level
[2]; 2nd, 14th and 30th days
  Serum VLDL level: nearly normal value
[2]
  Serum CH (cholesterol) level: moderate regulation of the CH value

## NNC(=O)CN1C(=O)SC(=Cc2ccc3c(c2)OCO3)C1=O [Compound 5, 2-(5-(Benzo[d][1,3]dioxol-5-ylmethylene)-2,4-dioxothiazolidin-3-yl)acetohydrazide]
[1]; 100 mg/Kg, 15th and 30th days
  Blood glucose level (BGL) compared to DC: significance decrease in the BGL
[1]; 250 mg/Kg, 15th and 30th days
  Blood glucose level (BGL) regulation: organized the BGL more than 6
[2]; 2nd day
  Serum CH (cholesterol) level reduction: moderate reduction value
[2]; 15th and 30th days
  Serum CH (cholesterol) level reduction: best reduction of the CH level
  Serum VLDL level: lower than normal value

## COc1ccc(/C=N/NC(=O)CN2C(=O)S/C(=C/c3ccc4c(c3)OCO4)C2=O)cc1 [Compound 7]
α-amylase enzyme
  IC50: 130 µM
[3]
  Antioxidant (scavenging) activity compared to STD (ascorbic acid): lower scavenging activity than STD
[1]; 50 mg/Kg, 15th and 30th days
  Blood glucose level (BGL) reduction: highest percentage in the BGL reduction
[1]; 100 mg/Kg, 15th and 30th days
  Blood glucose level (BGL) compared to DC: insignificant decrease in the BGL
[1]; 250 mg/Kg, 4th, 15th and 30th days
  Blood glucose level (BGL) compared to DC: reduced BGL significantly
[2]
  Serum CH (cholesterol) level: worst CH level from all compounds
